Data: ChEMBL document CHEMBL3301550, “MMV Mararia Box screening against P. falciparum asexual stage parasites under hypoxia and bicarbonate modified culture conditions”

Tests used:
Assay type in all cases: functional, organism-based
Settings in all cases: 3D7
Plasmodium falciparum [1] = assay: MMV: Modified 3H-Hyoxanthine uptake assay; 1% O2, 5% CO2 in N2.
Plasmodium falciparum [2] = assay: MMV: Modified 3H-Hyoxanthine uptake assay; RPMI 1640 (Invitrogen cat#23400-013) without Sodium Bicarbonate (NaHCO3).
Plasmodium falciparum [3] = assay: MMV: 3H-Hyoxanthine uptake assay; 5% O2, 5% CO2 in N2.
Plasmodium falciparum [4] = assay: MMV: 3H-Hyoxanthine uptake assay; RPMI 1640 (Invitrogen cat#11875-093) with Sodium Bicarbonate (NaHCO3) […].

Row | Compound | IC50 (Plasmodium falciparum [1]) [nM] | IC50 (Plasmodium falciparum [2]) [nM] | IC50 (Plasmodium falciparum [3]) [nM] | IC50 (Plasmodium falciparum [4]) [nM]
1 | CN1CCN(c2ccc(Nc3c4ccccc4nc4ccccc34)cc2)CC1 | 76 | 269 | 117 | 98
2 | CN(C)CCCNc1c2ccccc2nc2ccccc12 | 59 | 594 | 360 | 190
3 | CCN1CCCC1CNc1[nH]cnc2c3cc(Cl)ccc3nc1-2 (configuration not stated) | > 1000 | > 1000 | > 1000 | > 1000
4 | COc1ccc(-c2c(C)nn3c(N)c(C#N)cnc23)cc1OC | – | 457 | – | 330
5 | CSC1=NC(=Nc2c(C)cccc2C)C2(CCC(C(C)(C)C)CC2)N1c1ccc(Cl)cc1 (configuration not stated) | > 1000 | > 1000 | > 1000 | > 1000
6 | Cc1cc(C)cc(Nc2cc(C)nc3nc(C(F)(F)F)nn23)c1 | 47 | 132 | 81 | 59
7 | O=C(NCC(c1ccsc1)N1CCCCCC1)c1ccc(C(F)(F)F)cc1 (configuration not stated) | – | 1120 | – | 425
8 | Cc1ccc(-c2cc3c(SCC(=O)Nc4cc(C(F)(F)F)ccc4Cl)nccn3n2)cc1 | > 500 | > 500 | > 500 | > 500
9 | CCN(CC)CCNc1ncnc2c1[nH]c1ccc(Cl)cc12 | 266 | 851 | 314 | 326
10 | CCOC(=O)c1cnc2ccc(CC)cc2c1O | > 1000 | 408 | > 1000 | 301
11 | Cc1ccc(-c2cc3c(nn2)-c2ccccc2C3=O)cc1 | > 500 | > 500 | > 500 | > 500
12 | CCN(CC)CCNc1ccnc2cc(Cl)ccc12 | 18 | 94 | 40 | 46
13 | Cc1ccc(Nc2nc(-c3ccccn3)cs2)cc1 | > 1000 | > 1000 | > 1000 | > 1000
14 | CCCCCC(=O)N1c2ccccc2N=C2CC(c3ccc(OC)c(OC)c3)CC(O)=C2C1c1ccc(C(F)(F)F)cc1 (configuration not stated) | – | 144 | – | 129
15 | Cc1cc(NCCN2CCCCC2)c2ccc3ccccc3c2n1 | 132 | 219 | 489 | 127
16 | COc1ccc(-n2ccnc2SCC(=O)Nc2cc(C)ccc2C)c(OC)c1 | 431 | > 1000 | 793 | > 1000
17 | CCN1CCN(Cc2ccc(NC(=O)c3cc4ccc5cccnc5c4[nH]3)cc2)CC1 | 497 | 674 | 422 | 582
18 | COc1ccc(-c2nc(NC(=O)CS(=O)(=O)c3ccc(F)cc3)sc2C)cc1 | – | 464 | – | 192
19 | O=C(O)C1Cc2c([nH]c3ccccc23)C(c2ccc(Cl)cc2Cl)N1 (configuration not stated) | > 1000 | > 1000 | > 1000 | > 1000
20 | Cc1ccc(N2C(=O)C3C(C2=O)C2(c4ccccc4)C(=O)C3(c3ccccc3)C(c3ccccc3)=C2c2ccccc2)cc1 (configuration not stated) | > 1000 | > 1000 | > 1000 | > 1000
21 | CCc1c(C)c(=N)c2ccccc2n1C | 338 | 784 | 324 | 425
22 | COc1cccc(NC(=O)[C@H](C(C)C)n2c(=O)[nH]c3ccccc3c2=O)c1 | 156 | 349 | 213 | 199

Row | Compound | IC50 (Plasmodium falciparum [1]) [nM] | IC50 (Plasmodium falciparum [2]) [nM] | IC50 (Plasmodium falciparum [3]) [nM] | IC50 (Plasmodium falciparum [4]) [nM]
23 | CCOC(=O)c1cn(CC)c2cc(N(C)CCc3ccc(OC)c(OC)c3)c(F)cc2c1=O | 85 | – | 345 | –
24 | CCC(c1ccccc1)c1nn2c(-c3cccs3)nnc2s1 (configuration not stated) | 66 | 181 | 415 | 150
25 | CCOc1cc2c(cc1OCC)C(c1cc(OC)c(O)cc1Cl)NCC2 (configuration not stated) | 568 | 982 | 374 | 746
26 | CC1CN(C(=O)c2sc3ccccc3c2Cl)CC(C)O1 (configuration not stated) | 100 | 71 | 79 | 73
27 | CN(C)c1ccc(C=Cc2nc(=O)c3ccccc3o2)cc1 | > 500 | 295 | > 500 | 366
28 | COc1ccc(C2=C(c3ccc(OC)cc3)C3(c4ccccc4)C(=O)C2(c2ccccc2)C2C(=O)N(c4ccc(C)cc4)C(=O)C23)cc1 (configuration not stated) | > 1000 | > 1000 | > 1000 | > 1000
29 | CCOC(=O)c1c(NC(=O)c2ccccc2)sc2c(O)c(CN(CC)CC)ccc12 | > 1000 | – | > 1000 | –
30 | CCOC(=O)C1=C(c2ccccc2)N=c2sc(=Cc3cc(C)n(-c4ccc(F)cc4)c3C)c(=O)n2C1c1cccc(OC)c1OC (configuration not stated) | > 1000 | > 1000 | > 1000 | > 1000
31 | CCC1(C)CC(CCNCc2ccccc2O)(c2ccc(C)cc2)CCO1 (configuration not stated) | 236 | 277 | 540 | 266
32 | COc1cccc(C=Cc2nc(=O)c3ccccc3o2)c1OC | > 500 | > 500 | > 500 | > 500
33 | CCCN(CCC)CC(O)COc1ccccc1C(=O)Nc1ccccc1 (configuration not stated) | 169 | 347 | 281 | 315
34 | Fc1ccc2[nH]c3c(NCCCN4CCOCC4)ncnc3c2c1 | > 1000 | > 1000 | > 1000 | > 1000
35 | COc1ccc(C(=O)Nc2nonc2-c2ccc(OC)c(OC)c2)cc1Cl | > 1000 | > 1000 | > 1000 | > 1000
36 | COc1ccc(C=C2SC(=N)N(c3ccccc3OC)C2=O)cc1 | – | 167 | 531 | –
37 | CCOC(=O)c1c(C)n(-c2ccc(Cl)cc2)c2ccc(OC(=O)C=Cc3ccccc3)cc12 | > 1000 | > 1000 | > 1000 | > 1000
38 | COc1ccc2c(c1)OC(O)(C(F)(F)C(F)(F)F)CC2=O (configuration not stated) | 702 | 204 | 443 | 246
39 | C=CC12CCN(CC1)C(C(O)c1ccnc3ccc(OC)cc13)C2 (configuration not stated) | – | 40 | – | 21
40 | Cc1ccc(-c2cc3nc4c(c(O)n3n2)CCCC4)cc1 | > 1000 | 1260 | > 1000 | 889
41 | Cc1cccc(Nc2nc(N)c3ccccc3n2)c1 | 230 | 332 | 299 | 283
42 | CCn1c(CN2CCN(Cc3ccccc3)CC2)nc2cc(NC(=O)c3cccs3)ccc21 | – | 186 | – | 174
43 | c1ccc2cc3c(Nc4ccc(N5CCOCC5)cc4)ccnc3cc2c1 | > 1000 | > 1000 | > 1000 | 1440
44 | Cc1cc(C)c2c(c1)OCN(Cc1ccccc1Cl)C2 | – | 362 | – | 276

Row | Compound | IC50 (Plasmodium falciparum [1]) [nM] | IC50 (Plasmodium falciparum [2]) [nM] | IC50 (Plasmodium falciparum [3]) [nM] | IC50 (Plasmodium falciparum [4]) [nM]
45 | COc1cc(OC)c(N(C)C(=O)c2cc3c(s2)-c2ccccc2S(=O)(=O)C3)cc1Cl | > 500 | > 500 | > 500 | > 500
46 | CCCc1cc(O)c2c3c(c(=O)oc2c1)CN(C)CC3 | > 1000 | – | > 1000 | –
47 | Cc1cc(NC(=O)C2c3ccccc3C(=O)N(CC(C)C)C2c2cccs2)no1 (configuration not stated) | 183 | 385 | 300 | 213
48 | Oc1ccccc1CNCC12CC3CC(CC(C3)C1)C2 | 63 | 121 | 136 | 104
49 | CNCCCNc1ccnc2cc(Cl)ccc12 | 23 | 155 | 44 | 40
50 | COc1ccccc1CNC(=O)CCn1c(=O)[nH]c2ccsc2c1=O | – | 432 | – | 367
51 | COc1ccc(Br)cc1C1Nc2ccc3ccccc3c2C2=C1C(=O)CC(c1ccccc1)C2 (configuration not stated) | > 1000 | 710 | > 1000 | 783
52 | Cc1cc(C=C2SC(=Nc3ccccc3)N(C3CCCC3)C2=O)c(C)n1-c1ccc(Cl)cc1 | > 1000 | > 1000 | > 1000 | > 1000
53 | CCc1ccc(Nc2cc(C)c3ccc(O)cc3n2)cc1 | 150 | 127 | 165 | 171
54 | COc1ccc2c(=O)cc(C(Cl)(Cl)Cl)oc2c1 | > 1000 | 789 | > 1000 | 942
55 | COc1ccc(-c2nc3cc(Cc4ccc5[nH]c(-c6ccc(OC)cc6)nc5c4)ccc3[nH]2)cc1 | > 1000 | > 1000 | > 1000 | > 1000
56 | Cc1cc(Nc2ccc(Cl)cc2)n2nc(C(F)(F)F)nc2n1 | 70 | 169 | 349 | 112
57 | COc1ccc(C(C)=O)cc1N1C(=O)C2C(C1=O)C1(c3ccccc3)C(=O)C2(c2ccccc2)C(c2ccc(C)cc2)=C1c1ccc(C)cc1 (configuration not stated) | > 1000 | > 1000 | > 1000 | > 1000
58 | CCCCCCOC(=O)C1=C(C)NC(=O)NC1c1ccccc1F (configuration not stated) | > 1000 | > 1000 | > 1000 | > 1000
59 | Cc1ccc(N2C3c4ccccc4N(S(=O)(=O)c4ccc(C)cc4)C2c2ccccc2N3S(=O)(=O)c2ccc(C)cc2)cc1 | > 500 | > 500 | > 500 | > 500
60 | CCCc1c(CC)c(=N)c2ccccc2n1C | 65 | 355 | 397 | 211
61 | Cc1ccc(Nc2nc(NCCO)c3ccccc3n2)cc1C | 219 | 325 | 238 | 186
62 | CCOC(=O)c1cnc2c(C)cc(C)cc2c1Nc1ccc(OC)c(OC)c1 | > 1000 | > 2000 | > 1000 | > 2000
63 | COc1ccc(NC(=O)C2c3ccccc3C(=O)N(CC(C)C)C2c2cccs2)cc1 (configuration not stated) | 211 | 370 | 343 | 262
64 | c1ccc(Cn2c(N=Nc3c(Nc4ccccc4)ccc4ccccc34)nc3ccccc32)cc1 | > 500 | 64 | > 500 | 125
